Test results published in ChEMBL document CHEMBL1154685, “Simple oxidation of pyrimidinylhydrazones to triazolopyrimidines and their inhibition of Shiga toxin trafficking” (Eur J Med Chem, 2010).

Test system: HeLa
Experiment: Toxicity in human HeLa cells assessed as inhibition of protein synthesis by [35S]labeled methionine and cysteine incorporation
Type: cell-based

In the case of `Oc1ccc(-c2nc3c4c5c(sc4ncn3n2)CCCC5)cc1`, the Activity is reported as “Non-toxic”.

In the case of `COc1cc(/C=N/NC2=C3C4=C(CCCC4)SC3N=CN2)ccc1O` (configuration not stated), the Activity is reported as “Non-toxic”.
